Where “and” joins values, the source holds several entries; their conditions need not be identical. Identical values can stand only once. Toxic doses and inconclusive results are not listed.
System: L1210 leukemia ip in BDF1 mice, survival T/C
Assay: NCI In Vivo Anticancer Drug Screen. Data for tumor model L1210 Leukemia (intraperitoneal) in B6D2F1 (BDF1) mice
Settings: endpoint: mean survival time, higher = longer survival
Method in brief: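 Tumor cells were implanted, animals were treated, and survival was followed. The result divides the treated measurement by the vehicle-control measurement.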

[1] = dose: 100.0 mg/kg/injection, schedule: Q01DX009 (ip), vehicle: saline with Tween-80
[2] = dose: 200.0 mg/kg/injection, schedule: Q01DX009 (ip), vehicle: saline with Tween-80
[3] = dose: 100.0 mg/kg/injection, schedule: Q04DX003 (ip), vehicle: saline
[4] = dose: 200.0 mg/kg/injection, schedule: Q04DX003 (ip), vehicle: saline
[5] = dose: 400.0 mg/kg/injection, schedule: Q04DX003 (ip), vehicle: saline
[6] = dose: 50.0 mg/kg/injection, schedule: Q01DX001 (ip), vehicle: saline
[7] = dose: 100.0 mg/kg/injection, schedule: Q01DX001 (ip), vehicle: saline
[8] = dose: 200.0 mg/kg/injection, schedule: Q01DX001 (ip), vehicle: saline
[9] = dose: 400.0 mg/kg/injection, schedule: Q01DX001 (ip), vehicle: saline
[10] = dose: 100.0 mg/kg/injection, schedule: Q04DX003 (ip), vehicle: saline with Tween-80
[11] = dose: 400.0 mg/kg/injection, schedule: Q04DX003 (ip), vehicle: saline with Tween-80
[12] = dose: 400.0 mg/kg/injection, schedule: Q01DX009 (ip), vehicle: saline with Tween-80
[13] = dose: 100.0 mg/kg/injection, schedule: Q01DX009 (ip), vehicle: saline
[14] = dose: 200.0 mg/kg/injection, schedule: Q01DX009 (ip), vehicle: saline
[15] = dose: 100.0 mg/kg/injection, schedule: Q01DX009 (ip), vehicle: Klucel (hydroxypropylcellulose) (HPC)
[16] = dose: 100.0 mg/kg/injection, schedule: Q04DX003 (ip), vehicle: Klucel (hydroxypropylcellulose) (HPC)
[17] = dose: 200.0 mg/kg/injection, schedule: Q01DX009 (ip), vehicle: Klucel (hydroxypropylcellulose) (HPC)
[18] = dose: 200.0 mg/kg/injection, schedule: Q04DX003 (ip), vehicle: Klucel (hydroxypropylcellulose) (HPC)
[19] = dose: 400.0 mg/kg/injection, schedule: Q04DX003 (ip), vehicle: Klucel (hydroxypropylcellulose) (HPC)

CCCCCCP(=O)(CCCCCC)CCCCCC (tested in a mixture with another compound)
T/C [1]: 100 % of control
T/C [2]: 86 % of control

CCN=C(c1ccc(NC(=O)c2ccc(C(=O)Nc3ccc(C(=NCC)N(CC)C(=O)C(F)(F)C(F)(F)C(F)(F)F)cc3)cc2)cc1)N(CC)C(=O)C(F)(F)C(F)(F)C(F)(F)F
T/C (dose: 1.5 mg/kg/injection, schedule: Q01DX015 (ip), vehicle: methylcellulose (MC)): 96 % of control
T/C (dose: 3.0 mg/kg/injection, schedule: Q01DX015 (ip), vehicle: methylcellulose (MC)): 113 % of control
T/C (dose: 7.5 mg/kg/injection, schedule: Q01DX015 (ip), vehicle: methylcellulose (MC)): 153 % of control
T/C (dose: 12.0 mg/kg/injection, schedule: Q01DX015 (ip), vehicle: methylcellulose (MC)): 124 % of control

N#C/C=C/C1=CCCCC1
T/C [3]: 101 % of control
T/C [4]: 97 % of control
T/C [5]: 93 % of control

Nc1nccnc1Nc1ccccc1
T/C (dose: 75.0 mg/kg/injection, schedule: Q01DX001 (ip), vehicle: other): 100 % of control
T/C (dose: 150.0 mg/kg/injection, schedule: Q01DX001 (ip), vehicle: other): 100 % of control
T/C (dose: 300.0 mg/kg/injection, schedule: Q01DX001 (ip), vehicle: other): 100 % of control

NC(CSS(=O)(=O)O)=NCCCc1nc2ccccc2[nH]1
T/C (dose: 100.0 mg/kg/injection, schedule: Q04DX002 (ip), vehicle: Klucel (hydroxypropylcellulose) (HPC)): 106 % of control
T/C (dose: 200.0 mg/kg/injection, schedule: Q04DX002 (ip), vehicle: Klucel (hydroxypropylcellulose) (HPC)): 92 % of control
T/C (dose: 400.0 mg/kg/injection, schedule: Q04DX002 (ip), vehicle: Klucel (hydroxypropylcellulose) (HPC)): 95 % of control

COc1ccc(/C=C\C(=O)OCCCCOC(=O)/C=C/c2ccc(OC)cc2)cc1
T/C [6]: 95 % of control
T/C [7]: 95 % of control
T/C [8]: 95 % of control
T/C [9]: 95 % of control

CS(=O)(=O)OCCCN(CCCOS(C)(=O)=O)c1ccc(C=Nc2ccc(-c3csc(COc4ccc(Br)cc4Br)n3)cc2)cc1
T/C [10]: 91 % of control
T/C (dose: 200.0 mg/kg/injection, schedule: Q04DX003 (ip), vehicle: saline with Tween-80): 88 % of control
T/C [11]: 86 % of control

Cc1cnc2ccccc2c1
T/C [7]: 100 % of control
T/C [8]: 100 % of control

COc1ccc2c(=O)c(C)c(-c3ccccc3)oc2c1CN(C)C
T/C (dose: 0.19 mg/kg/injection, schedule: Q01DX009 (ip), vehicle: saline): 96 % of control
T/C (dose: 0.39 mg/kg/injection, schedule: Q01DX009 (ip), vehicle: saline): 112 % of control
T/C (dose: 0.78 mg/kg/injection, schedule: Q01DX009 (ip), vehicle: saline): 110 % of control
T/C (dose: 0.78 mg/kg/injection, schedule: Q04DX003 (ip), vehicle: saline): 100 % of control
T/C (dose: 1.56 mg/kg/injection, schedule: Q01DX009 (ip), vehicle: saline): 112 % of control
T/C (dose: 1.56 mg/kg/injection, schedule: Q04DX003 (ip), vehicle: saline): 94 % of control
T/C (dose: 3.12 mg/kg/injection, schedule: Q01DX009 (ip), vehicle: saline): 108 % of control
T/C (dose: 3.12 mg/kg/injection, schedule: Q04DX003 (ip), vehicle: saline): 93 % of control
T/C (dose: 5.0 mg/kg/injection, schedule: Q01DX001 (ip), vehicle: saline): 103 % of control

O=c1ccnc(/C=C/c2ccc(Cl)cc2)[nH]1
T/C [2]: 87 % of control
T/C [12]: 96 % of control

c1ccc(NC2CCCCC2)cc1
T/C (dose: 50.0 mg/kg/injection, schedule: Q01DX003 (ip), vehicle: Klucel (hydroxypropylcellulose) (HPC)): 103 % of control
T/C (dose: 100.0 mg/kg/injection, schedule: Q01DX003 (ip), vehicle: Klucel (hydroxypropylcellulose) (HPC)): 101 % of control
T/C (dose: 200.0 mg/kg/injection, schedule: Q01DX003 (ip), vehicle: Klucel (hydroxypropylcellulose) (HPC)): 101 % of control

CCCCC(C#N)(C(=O)OCC)C(C)(C)C (centres undefined)
T/C [13]: 105 % of control
T/C [3]: 96 % of control
T/C [14]: 92 % of control
T/C [4]: 97 % of control
T/C (dose: 400.0 mg/kg/injection, schedule: Q01DX009 (ip), vehicle: saline): 101 % of control
T/C [5]: 96 % of control

COc1ccc(OC)c(NC(=O)Nc2c(C)n(C)n(-c3ccccc3)c2=O)c1
T/C [15]: 93 % of control
T/C [16]: 98 % of control
T/C [17]: 93 % of control
T/C [18]: 93 % of control
T/C (dose: 400.0 mg/kg/injection, schedule: Q01DX009 (ip), vehicle: Klucel (hydroxypropylcellulose) (HPC)): 101 % of control
T/C [19]: 90 % of control

O=C(O)COc1c(Br)cc(Br)cc1Br
T/C (dose: 50.0 mg/kg/injection, schedule: Q01DX009 (ip), vehicle: Klucel (hydroxypropylcellulose) (HPC)): 93 % of control
T/C [15]: 96 % of control
T/C [17]: 88 % of control

CCOC(=O)c1ccc(N(CC(O)CN=[N+]=[N-])S(=O)(=O)c2ccc(C)cc2)cc1 (centres undefined)
T/C (dose: 100.0 mg/kg/injection, schedule: Q01DX001 (ip), vehicle: saline with Tween-80): 101 % of control
T/C [1]: 102 % of control and 107 % of control
T/C (dose: 100.0 mg/kg/injection, schedule: Q04DX002 (ip), vehicle: saline with Tween-80): 98 % of control
T/C [10]: 88 % of control
T/C (dose: 200.0 mg/kg/injection, schedule: Q01DX001 (ip), vehicle: saline with Tween-80): 101 % of control
T/C [2]: 95 % of control and 100 % of control
T/C (dose: 200.0 mg/kg/injection, schedule: Q04DX002 (ip), vehicle: saline with Tween-80): 93 % of control and 89 % of control
T/C (dose: 400.0 mg/kg/injection, schedule: Q01DX001 (ip), vehicle: saline with Tween-80): 104 % of control
T/C [12]: 104 % of control and 91 % of control
T/C (dose: 400.0 mg/kg/injection, schedule: Q04DX002 (ip), vehicle: saline with Tween-80): 96 % of control and 89 % of control
T/C [11]: 88 % of control

C[n+]1cc(-c2ccccc2)cc2ccccc21
T/C (dose: 75.0 mg/kg/injection, schedule: Q01DX001 (ip), vehicle: saline): 97 % of control

c1ccc2cc(SSc3ccc4ccccc4c3)ccc2c1
T/C [16]: 95 % of control
T/C [18]: 89 % of control
T/C [19]: 86 % of control

CCOC(=O)c1cnn2c(SC)ncnc12
T/C (dose: 25.0 mg/kg/injection, schedule: Q04DX003 (ip), vehicle: saline with Tween-80): 102 % of control
T/C (dose: 50.0 mg/kg/injection, schedule: Q01DX009 (ip), vehicle: saline with Tween-80): 102 % of control
T/C (dose: 50.0 mg/kg/injection, schedule: Q04DX003 (ip), vehicle: saline with Tween-80): 104 % of control
T/C [1]: 91 % of control
T/C [10]: 107 % of control

O=[N+]([O-])c1nccn1C1OC(CO)C(O)C1O (centres undefined)
T/C [6]: 98 % of control
T/C [7]: 98 % of control
T/C [8]: 102 % of control
T/C [9]: 102 % of control

O=C(O)CC(O)C(F)(F)C(F)(F)C(F)(F)F (centres undefined)
T/C [13]: 90 % of control
T/C [3]: 100 % of control
T/C [14]: 86 % of control
T/C [4]: 97 % of control
T/C [5]: 87 % of control

OC(c1ccccc1)C(c1ccccc1)N1CC1 (centres undefined)
T/C (dose: 75.0 mg/kg/injection, schedule: Q01DX001 (ip), vehicle: carboxymethylcellulose (CMC)): 93 % of control
T/C (dose: 150.0 mg/kg/injection, schedule: Q01DX001 (ip), vehicle: carboxymethylcellulose (CMC)): 92 % of control
T/C (dose: 300.0 mg/kg/injection, schedule: Q01DX001 (ip), vehicle: carboxymethylcellulose (CMC)): 92 % of control

O=C(NCS(=O)(=O)O)OCc1ccccc1
T/C (dose: 100.0 mg/kg/injection, schedule: Q01DX001 (ip), vehicle: other): 98 % of control
T/C (dose: 100.0 mg/kg/injection, schedule: Q04DX003 (ip), vehicle: other): 96 % of control
T/C (dose: 200.0 mg/kg/injection, schedule: Q01DX001 (ip), vehicle: other): 104 % of control
T/C (dose: 200.0 mg/kg/injection, schedule: Q04DX003 (ip), vehicle: other): 102 % of control
T/C (dose: 400.0 mg/kg/injection, schedule: Q01DX001 (ip), vehicle: other): 96 % of control
T/C (dose: 400.0 mg/kg/injection, schedule: Q04DX003 (ip), vehicle: other): 96 % of control

ClCCCN1Cc2ccccc2CCc2ccccc2C1
T/C [16]: 102 % of control
T/C [18]: 100 % of control
T/C [19]: 107 % of control
